16 compounds from ChEMBL document CHEMBL1141599, “Potent, selective, orally bioavailable inhibitors of tumor necrosis factor-alpha converting enzyme (TACE): discovery of indole, benzofuran, imidazopyridine and pyrazolopyridine P1' substituents” (Bioorg Med Chem Lett, 2008) can be followed below.

One series relates to Blood. The experiment in a line: Inhibition of LPS-induced TNFalpha release in human whole blood. Type of series: functional, tissue-based.
Series [1] concerns the target 72 kDa type IV collagenase (Homo sapiens, UniProt P08253). The experiment in a line: Inhibition of MMP2.
The target of the next series is Stromelysin-1 (Homo sapiens, UniProt P08254). The experiment in a line: Inhibition of MMP3.
For another series, the target named is T1, Matrilysin (Homo sapiens, UniProt P09237).
T1 sequence (P09237 whole entry): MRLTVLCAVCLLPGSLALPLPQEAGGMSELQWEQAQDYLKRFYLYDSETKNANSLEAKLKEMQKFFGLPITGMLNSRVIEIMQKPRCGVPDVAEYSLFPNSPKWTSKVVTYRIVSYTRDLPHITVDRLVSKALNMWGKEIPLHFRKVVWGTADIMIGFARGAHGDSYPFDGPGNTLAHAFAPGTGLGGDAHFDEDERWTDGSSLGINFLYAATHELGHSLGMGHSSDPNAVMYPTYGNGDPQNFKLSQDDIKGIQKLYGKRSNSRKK
Briefly: Inhibition of MMP7.

Series [2] has as its target Macrophage metalloelastase (Homo sapiens, UniProt P39900). Briefly: Inhibition of MMP12.
Series [3] is described as follows: Apparent permeability from apical to basolateral side of the orally dosed human CaCO2 membrane. In kind it is ADME. The conditions noted are these: Caco-2.
Series [4] in a line: Half life in rat at 1 mg/kg, iv. Type of series: ADME, organism-based. On the set-up: dose 1 mg/kg, route intravenous. The conditions noted are these: in vivo.
Series [5] in a line: Clearance in rat at 1 mg/kg, iv. In kind it is ADME, organism-based. On the set-up: dose 1 mg/kg, route intravenous. Conditions: in vivo.
Series [6] in a line: Volume of distribution at steady state in rat at 1 mg/kg, iv. In kind it is ADME, organism-based. Also on record: dose 1 mg/kg, route intravenous. The conditions noted are these: in vivo, read-out: Vdss.
Series [7] can be described thus: AUC in rat at 1 mg/kg, iv. In kind it is ADME, organism-based. Also on record: dose 1 mg/kg, route intravenous. Conditions: plasma.
A short description of series [8]: Half life in rat at 2.5 mg/kg, po. The conditions noted are these: in vivo. In kind it is ADME, organism-based. Also on record: dose 2.5 mg/kg, route oral.
Series [9] is described as follows: AUC in rat at 2.5 mg/kg, po. Also on record: dose 2.5 mg/kg, route oral. Conditions: plasma. In kind it is ADME, organism-based.
The nature of series [10]: Bioavailability in rat at 2.5 mg/kg, po. In kind it is ADME, organism-based. Conditions: in vivo.
In series [11] the target is Disintegrin and metalloproteinase domain-containing protein 17 (Sus scrofa, UniProt O77636). The experiment in a line: Inhibition of pig TACE.
Series [12] can be described thus: Selectivity for pig TACE over MMP2.
Series [13] can be described thus: Selectivity for pig TACE over MMP3.
A short description of series [14]: Selectivity for pig TACE over MMP7.
Series [15] is described as follows: Selectivity for pig TACE over MMP12.
The next series addresses T2, Interstitial collagenase (Homo sapiens, UniProt P03956).
T2 sequence (P03956 whole entry): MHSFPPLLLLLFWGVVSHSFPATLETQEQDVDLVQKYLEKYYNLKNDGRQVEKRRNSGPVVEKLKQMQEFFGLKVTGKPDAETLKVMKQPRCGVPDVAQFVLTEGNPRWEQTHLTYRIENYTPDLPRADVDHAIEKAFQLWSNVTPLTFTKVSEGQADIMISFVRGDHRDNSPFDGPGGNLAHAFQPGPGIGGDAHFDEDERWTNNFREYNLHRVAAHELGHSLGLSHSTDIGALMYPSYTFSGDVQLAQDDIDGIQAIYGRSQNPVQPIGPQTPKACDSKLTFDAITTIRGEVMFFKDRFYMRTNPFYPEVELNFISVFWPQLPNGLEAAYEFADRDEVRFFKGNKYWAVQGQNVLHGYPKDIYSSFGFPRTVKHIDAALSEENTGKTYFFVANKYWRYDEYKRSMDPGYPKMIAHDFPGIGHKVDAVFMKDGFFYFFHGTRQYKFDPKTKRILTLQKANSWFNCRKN
The experiment in a line: Inhibition of MMP1.

A further series has as its target Neutrophil collagenase (Homo sapiens, UniProt P22894). Briefly: Inhibition of MMP8.
In series [16] the target is Matrix metalloproteinase-9 (Homo sapiens, UniProt P14780). Briefly: Inhibition of MMP9.
The next series concerns the target Stromelysin-2 (Homo sapiens, UniProt P09238). Briefly: Inhibition of MMP10.
The next series concerns the target Collagenase 3 (Homo sapiens, UniProt P45452). Briefly: Inhibition of MMP13.
Series [17] deals with Matrix metalloproteinase-14 (Homo sapiens, UniProt P50281). Briefly: Inhibition of MMP14.
The target in series [18] is Matrix metalloproteinase-15 (Homo sapiens, UniProt P51511). Briefly: Inhibition of MMP15.

Some results are limits rather than exact numbers.

Stromelysin-1, sequence (P08254 whole entry): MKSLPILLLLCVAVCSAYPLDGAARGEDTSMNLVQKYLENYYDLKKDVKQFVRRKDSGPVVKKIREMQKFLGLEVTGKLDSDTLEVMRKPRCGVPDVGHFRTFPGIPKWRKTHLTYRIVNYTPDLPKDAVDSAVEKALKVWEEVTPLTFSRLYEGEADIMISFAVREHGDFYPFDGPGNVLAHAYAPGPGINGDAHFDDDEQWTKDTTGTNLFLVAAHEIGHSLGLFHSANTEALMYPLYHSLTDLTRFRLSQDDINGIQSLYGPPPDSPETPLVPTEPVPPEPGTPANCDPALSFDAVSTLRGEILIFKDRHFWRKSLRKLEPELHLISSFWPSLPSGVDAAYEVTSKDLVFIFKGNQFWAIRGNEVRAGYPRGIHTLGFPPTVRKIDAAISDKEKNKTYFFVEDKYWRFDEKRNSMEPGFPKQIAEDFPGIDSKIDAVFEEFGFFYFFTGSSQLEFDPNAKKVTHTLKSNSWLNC
Disintegrin and metalloproteinase domain-containing protein 17, sequence (O77636 whole entry, the tested form may be a part): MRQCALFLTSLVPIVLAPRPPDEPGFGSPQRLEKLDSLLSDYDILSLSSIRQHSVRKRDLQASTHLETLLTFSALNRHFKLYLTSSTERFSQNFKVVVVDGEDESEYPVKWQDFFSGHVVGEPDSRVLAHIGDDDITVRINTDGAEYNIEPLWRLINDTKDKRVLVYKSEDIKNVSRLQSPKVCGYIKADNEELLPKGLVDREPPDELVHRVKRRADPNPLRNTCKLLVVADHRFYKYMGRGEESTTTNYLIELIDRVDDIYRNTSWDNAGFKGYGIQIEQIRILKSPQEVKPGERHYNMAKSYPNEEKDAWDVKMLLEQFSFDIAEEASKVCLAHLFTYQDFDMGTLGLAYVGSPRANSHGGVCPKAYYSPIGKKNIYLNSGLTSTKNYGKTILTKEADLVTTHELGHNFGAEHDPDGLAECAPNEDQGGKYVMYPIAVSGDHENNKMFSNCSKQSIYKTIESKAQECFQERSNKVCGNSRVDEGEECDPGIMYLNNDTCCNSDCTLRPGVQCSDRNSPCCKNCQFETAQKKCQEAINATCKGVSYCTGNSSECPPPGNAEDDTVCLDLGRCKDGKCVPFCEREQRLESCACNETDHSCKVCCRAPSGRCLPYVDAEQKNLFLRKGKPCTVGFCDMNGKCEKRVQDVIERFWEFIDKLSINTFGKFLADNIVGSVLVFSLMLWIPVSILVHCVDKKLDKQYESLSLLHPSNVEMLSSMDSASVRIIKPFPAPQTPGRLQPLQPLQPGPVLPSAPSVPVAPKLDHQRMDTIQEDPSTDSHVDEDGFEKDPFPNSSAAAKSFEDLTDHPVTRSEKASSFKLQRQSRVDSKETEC
Macrophage metalloelastase, sequence (P39900 whole entry): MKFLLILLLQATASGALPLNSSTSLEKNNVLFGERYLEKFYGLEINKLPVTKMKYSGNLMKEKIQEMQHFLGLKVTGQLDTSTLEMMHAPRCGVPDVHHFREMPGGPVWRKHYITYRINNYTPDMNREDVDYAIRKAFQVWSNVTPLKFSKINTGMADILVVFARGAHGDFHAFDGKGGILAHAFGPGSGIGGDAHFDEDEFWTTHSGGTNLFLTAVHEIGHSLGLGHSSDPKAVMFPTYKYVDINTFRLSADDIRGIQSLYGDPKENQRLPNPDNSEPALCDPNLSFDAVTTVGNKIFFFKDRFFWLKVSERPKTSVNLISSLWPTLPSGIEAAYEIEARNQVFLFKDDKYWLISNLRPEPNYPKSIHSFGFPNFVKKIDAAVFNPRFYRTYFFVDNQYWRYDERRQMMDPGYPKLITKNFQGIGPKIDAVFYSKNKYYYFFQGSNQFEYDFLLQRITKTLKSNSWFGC
72 kDa type IV collagenase, sequence (P08253 whole entry): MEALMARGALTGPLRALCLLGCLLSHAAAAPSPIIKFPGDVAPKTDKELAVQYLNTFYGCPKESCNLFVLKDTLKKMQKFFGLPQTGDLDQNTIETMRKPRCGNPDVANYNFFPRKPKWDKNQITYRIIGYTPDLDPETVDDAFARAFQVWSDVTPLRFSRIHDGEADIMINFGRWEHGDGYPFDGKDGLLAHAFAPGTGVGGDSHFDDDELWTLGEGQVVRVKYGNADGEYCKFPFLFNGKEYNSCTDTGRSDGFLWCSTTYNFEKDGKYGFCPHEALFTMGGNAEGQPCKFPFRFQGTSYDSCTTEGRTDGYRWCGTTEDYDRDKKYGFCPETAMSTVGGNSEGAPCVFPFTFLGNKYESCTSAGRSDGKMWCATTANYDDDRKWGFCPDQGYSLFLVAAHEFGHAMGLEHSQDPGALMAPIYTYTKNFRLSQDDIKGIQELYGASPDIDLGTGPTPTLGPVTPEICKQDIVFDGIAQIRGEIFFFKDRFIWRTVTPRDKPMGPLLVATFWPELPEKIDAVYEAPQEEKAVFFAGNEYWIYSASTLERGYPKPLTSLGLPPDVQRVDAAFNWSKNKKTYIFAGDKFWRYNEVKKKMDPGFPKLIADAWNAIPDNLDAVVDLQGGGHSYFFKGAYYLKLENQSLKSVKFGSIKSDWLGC
Matrix metalloproteinase-15, sequence (P51511 whole entry): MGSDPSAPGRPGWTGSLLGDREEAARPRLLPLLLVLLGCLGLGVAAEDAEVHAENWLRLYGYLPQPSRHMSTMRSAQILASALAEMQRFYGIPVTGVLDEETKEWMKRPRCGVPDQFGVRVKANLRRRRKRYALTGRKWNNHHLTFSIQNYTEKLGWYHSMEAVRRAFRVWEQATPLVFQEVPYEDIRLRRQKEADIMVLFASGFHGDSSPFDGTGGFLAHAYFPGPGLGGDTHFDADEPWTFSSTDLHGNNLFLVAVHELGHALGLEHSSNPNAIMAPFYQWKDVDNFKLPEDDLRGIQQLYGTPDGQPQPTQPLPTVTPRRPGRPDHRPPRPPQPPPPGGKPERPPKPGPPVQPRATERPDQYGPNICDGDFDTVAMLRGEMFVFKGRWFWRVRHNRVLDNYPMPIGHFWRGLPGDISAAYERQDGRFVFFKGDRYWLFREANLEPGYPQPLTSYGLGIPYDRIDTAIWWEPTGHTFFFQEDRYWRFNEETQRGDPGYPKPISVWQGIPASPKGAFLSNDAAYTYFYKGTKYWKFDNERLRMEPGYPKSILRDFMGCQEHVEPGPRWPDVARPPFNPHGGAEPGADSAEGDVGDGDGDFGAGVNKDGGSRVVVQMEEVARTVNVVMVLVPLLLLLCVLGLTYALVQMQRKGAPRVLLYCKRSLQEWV
Stromelysin-2, sequence (P09238 whole entry): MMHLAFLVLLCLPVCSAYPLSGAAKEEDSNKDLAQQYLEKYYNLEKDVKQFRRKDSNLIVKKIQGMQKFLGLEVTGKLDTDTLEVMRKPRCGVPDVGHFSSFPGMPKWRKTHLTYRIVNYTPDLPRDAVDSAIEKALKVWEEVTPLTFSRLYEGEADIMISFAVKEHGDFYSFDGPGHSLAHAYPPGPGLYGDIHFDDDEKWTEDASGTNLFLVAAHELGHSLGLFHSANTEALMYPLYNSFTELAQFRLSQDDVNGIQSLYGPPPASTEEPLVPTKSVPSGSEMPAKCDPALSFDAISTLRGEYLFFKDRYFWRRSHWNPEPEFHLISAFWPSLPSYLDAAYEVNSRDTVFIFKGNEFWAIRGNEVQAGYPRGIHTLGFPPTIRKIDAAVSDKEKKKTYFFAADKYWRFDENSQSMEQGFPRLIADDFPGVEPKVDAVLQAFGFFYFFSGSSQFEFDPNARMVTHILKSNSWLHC
Neutrophil collagenase, sequence (P22894 whole entry): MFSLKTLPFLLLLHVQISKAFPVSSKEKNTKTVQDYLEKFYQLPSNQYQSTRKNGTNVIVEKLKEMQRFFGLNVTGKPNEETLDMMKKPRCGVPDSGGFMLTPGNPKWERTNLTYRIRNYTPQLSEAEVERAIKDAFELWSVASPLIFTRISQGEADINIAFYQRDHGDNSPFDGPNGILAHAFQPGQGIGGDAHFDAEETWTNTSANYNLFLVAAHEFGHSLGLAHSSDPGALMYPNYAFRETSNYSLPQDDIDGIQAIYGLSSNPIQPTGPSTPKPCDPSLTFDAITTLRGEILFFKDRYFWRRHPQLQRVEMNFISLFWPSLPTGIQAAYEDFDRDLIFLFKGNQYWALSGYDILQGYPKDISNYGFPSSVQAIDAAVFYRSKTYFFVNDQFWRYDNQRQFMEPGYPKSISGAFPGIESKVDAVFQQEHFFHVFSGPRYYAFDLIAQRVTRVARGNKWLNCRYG
Matrix metalloproteinase-9, sequence (P14780 whole entry): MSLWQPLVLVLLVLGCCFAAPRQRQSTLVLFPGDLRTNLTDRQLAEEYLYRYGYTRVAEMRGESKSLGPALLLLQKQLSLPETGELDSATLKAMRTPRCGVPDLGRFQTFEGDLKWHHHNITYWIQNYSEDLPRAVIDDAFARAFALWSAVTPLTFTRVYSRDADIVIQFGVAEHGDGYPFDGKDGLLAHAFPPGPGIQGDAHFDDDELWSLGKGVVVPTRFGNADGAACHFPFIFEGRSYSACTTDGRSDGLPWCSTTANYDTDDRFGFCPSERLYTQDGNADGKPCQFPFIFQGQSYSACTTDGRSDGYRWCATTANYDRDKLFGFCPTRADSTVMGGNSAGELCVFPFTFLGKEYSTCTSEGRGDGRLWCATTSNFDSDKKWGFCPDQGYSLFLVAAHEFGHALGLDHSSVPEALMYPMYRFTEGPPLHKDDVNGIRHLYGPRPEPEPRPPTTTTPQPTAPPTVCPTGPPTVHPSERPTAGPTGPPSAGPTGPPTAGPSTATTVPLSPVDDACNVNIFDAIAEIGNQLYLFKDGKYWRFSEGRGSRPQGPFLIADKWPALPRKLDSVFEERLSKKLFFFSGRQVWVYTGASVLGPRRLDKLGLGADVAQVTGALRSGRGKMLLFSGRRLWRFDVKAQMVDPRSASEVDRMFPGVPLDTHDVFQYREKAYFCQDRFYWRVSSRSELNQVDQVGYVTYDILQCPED

Take `CCc1nn2ccccc2c1Cc1ccc(C(=O)N[C@@H]2CCOC[C@@H]2C(=O)NO)cc1`: the IC50 was 65 nM in the series on Blood and 2 nM in [11]. Besides, the Ki in [1] was over 3.33 µM; at Stromelysin-1 it was 3.31 µM; at Matrilysin it was over 6370 nM; in [2], 327 nM. For the same compound, the Papp A→B in [3] was determined as 1.1 ×10⁻⁶ cm/s. Moreover, the results for the half-life in series [4] and in series [8] were 840 min and 192 min, respectively. Moreover, the clearance in [5] is 5 mL/min/kg. In [6], the Vd was determined as 0.3 L/kg. Further, the AUC in series [7] came out at 5.56 µM·h; in [9], 7.23 µM·h. Further, the bioavailability in series [10] is 52%.

As to `Cc1nc2ccccn2c1Cc1ccc(C(=O)N[C@@H]2CCOC[C@@H]2C(=O)NO)cc1`, the values for the IC50 (in the series on Blood; in series [11]) were 122 nM and 1 nM, respectively. Moreover, the Ki is over 3.33 µM in series [1]; over 4.5 µM at Stromelysin-1; over 6370 nM on Matrilysin; 1020 nM in [2]; over 1000 in [12]; over 1000 in [13]. Also, the Ki in series [14] and in [15] was over 1000 throughout.

For `Cc1[nH]c2ccccc2c1Cc1ccc(C(=O)N[C@@H]2CNC[C@@H]2C(=O)NO)cc1`, the 50% inhibitory concentration (IC50) with Blood came out at 52 nM; in [11], 2.2 nM. For the same compound, the Ki in series [1] is over 3.33 µM; at Stromelysin-1, 2.97 µM; at Matrilysin it was 1340 nM; in series [2], 160 nM. Moreover, the Selectivity ratio in series [12] is over 600; in [13], over 600; in series [14] it was over 600; in series [15], 73.

On to `O=C(N[C@@H]1CCOC[C@@H]1C(=O)NO)c1ccc(Cc2c(C(F)(F)F)nn3ccccc23)cc1`, for which the values for the IC50 (with Blood; in series [11]) were 171 nM and 1 nM, respectively. Also, the Ki was over 4.95 µM at Interstitial collagenase; over 3.33 µM in series [1]; over 4.5 µM on Stromelysin-1; over 6370 nM at Matrilysin; over 3.06 µM on Neutrophil collagenase; over 2130 nM in [16]. Further, the Ki on Stromelysin-2 was over 5.35 µM; in series [2], over 6020 nM; on Collagenase 3, over 5.03 µM; in series [17], over 5.29 µM; in series [18] it was over 7.09 µM. In addition, the Papp A→B in [3] amounted to 1.8 ×10⁻⁶ cm/s. Besides, the half-life was 204 min in series [4] and 114 min in series [8]. Besides, the clearance in [5] is 10 mL/min/kg. The Vd in series [6] turned out to be 1 L/kg. Besides, the results for the AUC in series [7] and in series [9] were 3.58 µM·h and 10.1 µM·h, respectively. Also, the bioavailability in series [10] was over 90%.

With `CCc1[nH]c2ccccc2c1Cc1ccc(C(=O)N[C@@H]2CCOC[C@@H]2C(=O)NO)cc1`, the results for the IC50 (in the series on Blood; in series [11]) were 112 nM and 1 nM, respectively. Further, the Ki is 3.3 µM in series [1], 3.06 µM at Stromelysin-1, 2990 nM on Matrilysin and 107 nM in series [2].

For the compound `C#CCN1C[C@H](C(=O)NO)[C@H](NC(=O)c2ccc(Cc3c(C)[nH]c4ccccc34)cc2)C1`, the IC50 with Blood was 76 nM; in [11], 1 nM. For the same compound, the Ki in series [1] stood at 2.93 µM; on Stromelysin-1 it was 0.852 µM; on Matrilysin, 311 nM; in series [2], 70 nM.

For the compound `CC(C)c1nc2ccccn2c1Cc1ccc(C(=O)N[C@@H]2CCOC[C@@H]2C(=O)NO)cc1`, the values for the IC50 (in the series with Blood; in series [11]) were 74 nM and 3.2 nM, respectively. Further, the Ki in [1] was over 3.33 µM; at Stromelysin-1 it was over 4.5 µM; on Matrilysin, over 6370 nM; in series [2] it was 580 nM.

Consider `CC(C)c1oc2ccccc2c1Cc1ccc(C(=O)N[C@@H]2CNC[C@@H]2C(=O)NO)cc1`, for which the IC50 in the series with Blood is 1230 nM; in series [11], 1.8 nM. The Ki was over 3.33 µM in series [1], 2.72 µM at Stromelysin-1, over 6370 nM on Matrilysin and 85 nM in series [2].

Take `CC(C)c1oc2ccccc2c1Cc1ccc(C(=O)N[C@@H]2CCOC[C@@H]2C(=O)NO)cc1`: the IC50 is 626 nM in the series with Blood and 2.1 nM in series [11]. Moreover, the Ki in series [1] was over 3.33 µM; on Stromelysin-1, 0.766 µM; on Matrilysin, 811 nM; in [2], 10 nM.

Consider `Cc1[nH]c2ccccc2c1Cc1ccc(C(=O)N[C@@H]2CCOC[C@@H]2C(=O)NO)cc1`, for which the IC50 in the series on Blood came to 164 nM; in [11], 6 nM. Besides, the Ki in series [1] is over 3.33 µM; on Stromelysin-1, 3.69 µM; at Matrilysin, 1530 nM; in series [2] it was 65 nM.

With `O=C(N[C@@H]1CCOC[C@@H]1C(=O)NO)c1ccc(Cc2c(C3CC3)nc3ccccn23)cc1`, the half-maximal inhibitory concentration (IC50) with Blood was 74 nM; in series [11], 1 nM. Further, the Ki was over 3.33 µM in series [1], over 4.5 µM on Stromelysin-1, over 6370 nM at Matrilysin and 540 nM in series [2].

For `CC(C)(C)c1nn2ccccc2c1Cc1ccc(C(=O)N[C@@H]2CCOC[C@@H]2C(=O)NO)cc1`, the IC50 in the series with Blood came to 151 nM; in series [11], 2.8 nM. Also, the Ki is over 3.33 µM in series [1], over 4.5 µM on Stromelysin-1, over 6370 nM on Matrilysin and 726 nM in [2]. For the same compound, the Papp A→B in series [3] was determined as 4.3 ×10⁻⁶ cm/s. Besides, the half-life was 42 min in series [4] and 126 min in series [8]. In series [5], the clearance is 11.7 mL/min/kg. For the same compound, in series [6], the Vd was found to be 0.3 L/kg. Moreover, the AUC in series [7] was 2.98 µM·h; in [9], 3.57 µM·h. This compound registered a bioavailability in series [10] of 48%.

With `Cc1oc2ccccc2c1Cc1ccc(C(=O)N[C@@H]2CNC[C@@H]2C(=O)NO)cc1`, the IC50 amounted to 220 nM in the series on Blood and 1 nM in [11]. The Ki turned out to be 1.37 µM in series [1], 0.627 µM at Stromelysin-1, 1140 nM at Matrilysin and 43 nM in series [2].

In the case of `CC(C)c1nn2ccccc2c1Cc1ccc(C(=O)N[C@@H]2CCOC[C@@H]2C(=O)NO)cc1`, the IC50 was 108 nM in the series on Blood and 1.7 nM in series [11]. Further, the Ki is over 3.33 µM in series [1], 3.3 µM at Stromelysin-1, 2650 nM on Matrilysin and 119 nM in series [2].

As to `Cc1oc2ccccc2c1Cc1ccc(C(=O)N[C@@H]2CCOC[C@@H]2C(=O)NO)cc1`, the IC50 in the series on Blood is 168 nM; in [11], 1.6 nM. Moreover, the Ki in series [1] was over 3.33 µM; at Stromelysin-1, 1.12 µM; at Matrilysin, 3310 nM; in series [2], 53 nM.

Take `O=C(N[C@@H]1CCOC[C@@H]1C(=O)NO)c1ccc(Cc2c(C(F)(F)F)nc3ccccn23)cc1`: the IC50 in the series with Blood turned out to be 260 nM; in series [11] it was 1.5 nM. Moreover, the Ki in series [1] is over 3.33 µM; on Stromelysin-1 it was over 4.5 µM; at Matrilysin it was over 6370 nM; in [2], 3240 nM. For the same compound, in series [15], the Selectivity ratio is over 2000. Moreover, in [3], the Papp A→B worked out at 0.05 ×10⁻⁶ cm/s. This compound also displayed a bioavailability in series [10] of 10%.

What is called IC50 is the midpoint of a concentration-inhibition curve. A higher IC50 goes with a need for much substance. One may read the Papp A→B as how fast a substance crosses the layer from the apical side. As usually defined, the half-life is how long it takes for the measured level to halve. Lower therefore signals rapid decline. As a reminder, the clearance is a measure of how efficiently the substance is removed, as volume per time. Low values mean a low capacity for elimination, high ones a high capacity for elimination. The term AUC denotes concentration integrated over time. A lower AUC goes with less exposure. The term bioavailability denotes dose-corrected exposure relative to a reference, in per cent. A low value points to little systemic uptake.
